Entries after “also recorded” stand apart in the source; their conditions may differ.
Experiments:
[1] = biological target: T1, human TMEM97 (Homo sapiens, UniProt Q5BJF2); experiment: ^3H DTG competition binding in Sf9 insect membranes overexpressing TMEM97; settings: competition with 30 nM ^3H DTG
T1 construct: made in house; host or cells: Sf9 insect cells (baculovirus, pVL1392, BestBac)
Protocol: For insect cell expression, human TMEM97 was cloned into the vector pVL1392, and baculovirus was prepared using the BestBac system (Expression Systems) in accordance with manufacturer's instructions. For large scale production, Sf9 insect cells were infected at a density of 4×10^6 cells/mL and then shaken at 27° C. for 60 hours prior to harvest.
(§1) Membranes were prepared from PC-12, MCF-7, Sf9, or Expi293 cells. In brief, adherent cells were washed with ice cold PBS or HBS and harvested with a cell scraper, while suspension cells were simply pelleted. Cell pellets were suspended in 20 mM HEPES pH 7.5, 2 mM magnesium chloride, and 1:100,000 (v:v) benzonase nuclease (Sigma Aldrich) and supplemented with cOmplete Mini, EDTA-free Protease Inhibitor Cocktail Tablets (Roche). Following dounce homogenization, the cells were centrifuged at 50,000×g for 20 minutes. The supernatant was discarded and the membranes were washed one more time with cold 50 mM Tris pH 8.0 containing cOmplete Mini, EDTA-free Protease Inhibitor Cocktail Tablets (Roche, 1 tablet per 50 mL buffer). The membranes were centrifuged once more at 50,000× for 20 minutes, and then resuspended in a variable volume of cold 50 mM Tris pH 8.0 with the same protease inhibitor cocktail. Protein content was assessed by DC protein assay (Bio-Rad) according to manufacturer's instructions. Membranes were aliquoted, flash frozen, and stored at −80° C. until use in the radioligand binding experiments described below.
1.8 μM (+)SKF-10,047 was included to block 1l receptor sites in all MCF-7 membranes binding assays and in Sf9 membranes when testing TMEM97 ligands. Reactions were incubated for 90 minutes at 37° C., and were then terminated by filtration through a glass fiber filter using a Brandel cell harvester. Glass fiber filters were soaked in 0.3% polyethylenimine for at least 30 minutes at room temperature prior to harvesting. All reactions were performed in triplicate using a 96-well block. After the membranes were transferred to the filters and washed, the filters were soaked in 5 mL Cytoscint scintillation fluid overnight and radioactivity was measured using a Beckman Coulter LS 6500 scintillation counter. Data were analyzed using software from Graphpad Prism. Ki values were computed directly without the use of the Cheng-Prusoff correction using the Graphpad Prism software.

[2] = system: Tmem97 mRNA; experiment: siRNA knockdown of Tmem97 in PC-12 cells, qPCR of mRNA; assay type: cell-based, Rattus norvegicus; settings: 10 nM siRNA
Protocol: A pair of siRNA oligos were designed against Rattus norvegicus Tmem97 mRNA using the Stealth RNAi™ tool available through ThermoFisher Scientific. The sense strand for the siRNA was 5′-[…]-3′ (SEQ ID NO: 4), and the antisense strand was 5′-[…]-3′ (SEQ ID NO: 5). As a control, we used the AllStars Negative Control siRNA™ from Qiagen. For the transfection, 2.2×10^6 PC-12 cells suspended in 8.0 mL of DMEM with 10% FBS and 10 μg/mL of gentamicin were placed in a 10 cm dish and immediately transfected with a 2.0 mL solution containing 20 μL of Lipofectamine® RNAimax from ThermoFisher Scientific and 10 nM of either the control or Tmem97 siRNA. After 24 hours, the media was changed for fresh media, and the cells were transfected again in the same way. 48 hours after the first transfection, the cells were trypsinized and split 1:2 into two new 10 cm plates. On the 5th day after the first transfection, cells were harvested by trypsinization and centrifugation, and 10% were set aside for RNA extraction while 90% were used for binding analysis. […]
After preparation of the cDNA was complete, real-time quantitative PCR (qPCR) was performed on a QuantStudio 6 qPCR instrument at the Harvard Medical School Center for Molecular Interactions using PowerUp™ SYBR® Green Master Mix from Applied Biosystems Life Technologies. […] Fold differences in Tmem97 expression levels were calculated using the ΔΔCT method 43. […]

[3] = biological target: T2, sigma-2 receptor (Rattus norvegicus, UniProt Q5U3Y7); experiment: siRNA knockdown of Tmem97 in PC-12 cells, sigma-2 expression by saturating ^3H DTG binding; assay type: cell-based; settings: compared with mRNA reduction
T2 construct: endogenous in cells; host or cells: PC-12 cells
T2 sequence (Q5U3Y7 1-176): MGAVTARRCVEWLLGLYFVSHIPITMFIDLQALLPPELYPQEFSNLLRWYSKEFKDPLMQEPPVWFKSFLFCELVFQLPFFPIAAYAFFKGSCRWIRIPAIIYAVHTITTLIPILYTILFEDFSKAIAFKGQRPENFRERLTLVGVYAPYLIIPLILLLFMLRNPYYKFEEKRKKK
Protocol: as §1, with “Cell pellets were suspended in 20 mM HEPES pH 7.5, 2 mM magnesium chloride, and 1:100,000 (v:v) benzonase nuclease (Sigma Aldrich) and supplemented with cOmplete Mini, EDTA-free Protease Inhibitor Cocktail Tablets (Roche).” left out, “-80°” for “−80°”, “below. Membrane radioligand binding assays were performed as described 41 with slight modifications. […] Samples were incubated at room temperature with shaking for 1.5 hours, at which time the reaction was terminated by the addition of ice-cold water. Samples were then applied to glass fiber filters (Merck Millipore) that had been pre-treated with 0.3% (v/v) polyethylenimine. […] Radioactivity was measured by liquid scintillation counting. […]” for “below.”

[4] = biological target: sigma-2 receptor (Homo sapiens, UniProt Q5BJF2); experiment: ^3H DTG competition binding in MCF-7 cell membranes; settings: competition with 30 nM ^3H DTG
Protocol: as §1, with “The membranes were centrifuged once more at 50,000× for 20 minutes, and then resuspended in a variable volume of cold 50 mM Tris pH 8.0 with the same protease inhibitor cocktail.” left out, “Membranes were aliquoted, flash frozen, and stored at −80° C. until use in the radioligand binding experiments described below.” left out
1.8 μM (+)SKF-10,047 was included to block 1l receptor sites in all MCF-7 membranes binding assays and in Sf9 membranes when testing TMEM97 ligands. […] After the membranes were transferred to the filters and washed, the filters were soaked in 5 mL Cytoscint scintillation fluid overnight and radioactivity was measured using a Beckman Coulter LS 6500 scintillation counter. Data were analyzed using software from Graphpad Prism. […]

[5] = biological target: T3, PGRMC1 (Homo sapiens, UniProt O00264); experiment: single-point ^3H DTG binding, HEK293 cells overexpressing PGRMC1; settings: 10 nM ^3H DTG
T3 construct: mCardinal (behind the 2A skip peptide, reporter of transfection) (C, cleaved yes); expressed in transfected cells
Protocol: Eight selected hits from LC-MS/MS were cloned into a pTARGET vector (Promega), followed by a porcine teschovirus-1 2A skip peptide ([…] (SEQ ID NO: 3)) and by the fluorescent protein mCardinal40 to assess transfection efficiency. Plasmids were transfected into Expi293 cells (Thermo Fisher) according to manufacturer's instructions. After 36 hours, expression of each target protein was confirmed by flow cytometry analysis of mCardinal fluorescence levels. Receptor point mutants were generated by site-directed mutagenesis using KAPA polymerase (KAPA Biosystems), and resulting constructs were expressed in Expi293 cells as described above.
Membranes were prepared from PC-12, MCF-7, Sf9, or Expi293 cells. In brief, adherent cells were washed with ice cold PBS or HBS and harvested with a cell scraper, while suspension cells were simply pelleted. Cell pellets were suspended in 20 mM HEPES pH 7.5, 2 mM magnesium chloride, and 1:100,000 (v:v) benzonase nuclease (Sigma Aldrich) and supplemented with cOmplete Mini, EDTA-free Protease Inhibitor Cocktail Tablets (Roche). […] Protein content was assessed by DC protein assay (Bio-Rad) according to manufacturer's instructions. […]
Membrane radioligand binding assays were performed as described 41 with slight modifications. […] Radioactivity was measured by liquid scintillation counting.

T1 sequence (Q5BJF2 whole entry): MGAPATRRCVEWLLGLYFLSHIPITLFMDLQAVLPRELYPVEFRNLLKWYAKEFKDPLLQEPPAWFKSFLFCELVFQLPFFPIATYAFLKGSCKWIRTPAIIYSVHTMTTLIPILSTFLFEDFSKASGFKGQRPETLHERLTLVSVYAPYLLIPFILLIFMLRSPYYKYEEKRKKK
Sequence of sigma-2 receptor (Homo sapiens, UniProt Q5BJF2) (Q5BJF2 whole entry, species assumed): as the sequence (Q5BJF2 whole entry) above
T3 sequence (O00264 whole entry, species assumed): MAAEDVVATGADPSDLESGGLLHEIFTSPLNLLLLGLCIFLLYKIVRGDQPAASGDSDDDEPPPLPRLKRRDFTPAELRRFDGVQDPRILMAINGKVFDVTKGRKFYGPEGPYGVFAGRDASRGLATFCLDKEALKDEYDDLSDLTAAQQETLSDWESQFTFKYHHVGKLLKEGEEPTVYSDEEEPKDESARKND

Row | Molecule | affinity of the ligand for TMEM97 compared with previously reported affinities [1] | also measured
1 | CC(C)=CCN1CCC2(C)c3cc(O)ccc3CC1C2C (single isomer, unassigned; (+)) [(+)-pentazocine] | essentially identical to previously report sigma-2 receptor binding affinities; also recorded: essentially identical to previously reported affinities | 
2 | siRNA: siRNA against Rattus norvegicus Tmem97 mRNA; sense strand 5′-CAACCUGUUGCGGUGGUACUCUAAG-3′ (SEQ ID NO: 4) (antisense CUUAGAGUACCACCGCAACAGGUUG; chemistry not given here) |  | reduction of Tmem97 mRNA expression [2]: ~60%; reduction in sigma-2 expression levels by saturating ^3H DTG binding [3]: near identical reduction
3 | C=CCN(C)CCCCCCOc1ccc(C(=O)c2ccc(Br)cc2)c(F)c1 [Ro 48-8071, (4-Bromophenyl)-[2-fluoro-4-[6-[methyl(prop-2-enyl)amino]hexoxy]phenyl]methanone] | essentially identical to previously reported affinities | binding affinity in MCF-7 cell membranes compared with Sf9 membranes overexpressing TMEM97 [4]: identical in both
4 | Cc1ccccc1NC(=N)Nc1ccccc1C [^3H DTG, ^3H 1,3-di-o-tolylguanidine] |  | ^3H DTG binding [5]: did not lead to increased
5 | O=C(CCCN1CCC(O)(c2ccc(Cl)cc2)CC1)c1ccc(F)cc1 [haloperidol] | essentially identical to previously report sigma-2 receptor binding affinities; also recorded: essentially identical to previously reported affinities | 
6 | COc1cccc2c1CCCC2CCCN1CCN(C2CCCCC2)CC1 (centres unmarked) [PB-28] | essentially identical to previously report sigma-2 receptor binding affinities; also recorded: essentially identical to previously reported affinities | 
7 | COc1cc2c(cc1OC)CN(CCc1ccc(NC(=O)c3cccc4c(=O)c5cccc(OC)c5[nH]c34)cc1)CC2 [Elacridar] | essentially identical to previously reported affinities | binding affinity in MCF-7 cell membranes compared with Sf9 membranes overexpressing TMEM97 [4]: identical in both
8 | (+)-SKF-10,047 | essentially identical to previously report sigma-2 receptor binding affinities; also recorded: essentially identical to previously reported affinities | 

Reference: patent publication US20200000822A1, “METHODS OF TREATMENT FOR CANCER, STEROL HOMEOSTASIS, AND NEUROLOGICAL DISEASES” (BOARD OF REGENTS, THE UNIVERSITY OF TEXAS SYSTEM, priority 2017, published 2020)
